# Assays:
# [1] = target: D(1A) dopamine receptor (Homo sapiens) (UniProt P21728); conditions: Compound concentration 10.0 uM
# [2] = target: Serine/threonine-protein kinase NLK (Homo sapiens) (UniProt Q9UBE8); test: NLK ProQinase selectivity panel; conditions: Compound concentration 1.0 uM
# [3] = target: MAP kinase-interacting serine/threonine-protein kinase 2 (Homo sapiens) (UniProt Q9HBH9); test: MKNK2 ProQinase selectivity panel; conditions: Compound concentration 1.0 uM
# [4] = target: Ephrin type-B receptor 4 (Homo sapiens) (UniProt P54760); test: EPHB4 ProQinase selectivity panel; conditions: Compound concentration 1.0 uM
# [5] = target: Ribosomal protein S6 kinase beta-2 (Homo sapiens) (UniProt Q9UBS0); test: S6K-beta ProQinase selectivity panel; conditions: Compound concentration 1.0 uM
# [6] = target: Interleukin-1 receptor-associated kinase 4 (Homo sapiens) (UniProt Q9NWZ3); test: IRAK4 ProQinase selectivity panel; conditions: Compound concentration 1.0 uM
# [7] = target: Homeodomain-interacting protein kinase 4 (Homo sapiens) (UniProt Q8NE63); test: HIPK4 ProQinase selectivity panel; conditions: Compound concentration 1.0 uM
# [8] = target: cAMP-dependent protein kinase catalytic subunit PRKX (Homo sapiens) (UniProt P51817); test: PRKX ProQinase selectivity panel; conditions: Compound concentration 1.0 uM
# [9] = target: Serine/threonine-protein kinase PAK 5 (Homo sapiens) (UniProt Q9P286); test: PAK7 ProQinase selectivity panel; conditions: Compound concentration 1.0 uM
# [10] = target: NT-3 growth factor receptor (Homo sapiens) (UniProt Q16288); test: TRK-C ProQinase selectivity panel; conditions: Compound concentration 1.0 uM
# [11] = target: Aurora kinase B (Homo sapiens) (UniProt Q96GD4); test: Aurora-B ProQinase selectivity panel; conditions: Compound concentration 1.0 uM
# [12] = target: Lymphokine-activated killer T-cell-originated protein kinase (Homo sapiens) (UniProt Q96KB5); test: PBK ProQinase selectivity panel; conditions: Compound concentration 1.0 uM
# [13] = target: G protein-coupled receptor kinase 4 (Homo sapiens) (UniProt P32298); test: GRK4 ProQinase selectivity panel; conditions: Compound concentration 1.0 uM
# [14] = target: Tyrosine-protein kinase Blk (Homo sapiens) (UniProt P51451); test: BLK ProQinase selectivity panel; conditions: Compound concentration 1.0 uM
# [15] = target: Activin receptor type-1-like (Homo sapiens) (UniProt P37023); test: ACV-RL1 ProQinase selectivity panel; conditions: Compound concentration 1.0 uM
# [16] = target: Serine/threonine-protein kinase 16 (Homo sapiens) (UniProt O75716); test: TSF1 ProQinase selectivity panel; conditions: Compound concentration 1.0 uM
# [17] = target: Protein-tyrosine kinase 6 (Homo sapiens) (UniProt Q13882); test: BRK ProQinase selectivity panel; conditions: Compound concentration 1.0 uM
# [18] = target: Protein kinase C beta type (Homo sapiens) (UniProt P05771); test: PKC-beta2 ProQinase selectivity panel; conditions: Compound concentration 1.0 uM
# [19] = target: Serine/threonine-protein kinase Sgk2 (Homo sapiens) (UniProt Q9HBY8); test: SGK2 ProQinase selectivity panel; conditions: Compound concentration 1.0 uM
# [20] = target: Protein kinase C gamma type (Homo sapiens) (UniProt P05129); test: PKC-gamma ProQinase selectivity panel; conditions: Compound concentration 1.0 uM
# [21] = target: Macrophage-stimulating protein receptor (Homo sapiens) (UniProt Q04912); test: RON ProQinase selectivity panel; conditions: Compound concentration 1.0 uM
# [22] = target: Dual specificity tyrosine-phosphorylation-regulated kinase 1A (Homo sapiens) (UniProt Q13627); test: DYRK1A ProQinase selectivity panel; conditions: Compound concentration 1.0 uM
# [23] = target: Death-associated protein kinase 3 (Homo sapiens) (UniProt O43293); test: DAPK3 ProQinase selectivity panel; conditions: Compound concentration 1.0 uM
# [24] = target: 5-hydroxytryptamine receptor 2B (Homo sapiens, UniProt P41595); conditions: Compound concentration 10.0 uM
# [25] = target: Casein kinase II subunit alpha (Homo sapiens) (UniProt P68400); test: CK2-alpha1 ProQinase selectivity panel; conditions: Compound concentration 1.0 uM
# [26] = target: Receptor-type tyrosine-protein kinase FLT3 (Homo sapiens) (UniProt P36888); test: FLT3 wt ProQinase selectivity panel; conditions: Compound concentration 1.0 uM
# [27] = target: Serine/threonine-protein kinase Nek11 (Homo sapiens) (UniProt Q8NG66); test: NEK11 ProQinase selectivity panel; conditions: Compound concentration 1.0 uM
# [28] = target: Glycogen synthase kinase-3 beta (Homo sapiens) (UniProt P49841); test: GSK3-beta ProQinase selectivity panel; conditions: Compound concentration 1.0 uM
# [29] = target: Proto-oncogene tyrosine-protein kinase ROS (Homo sapiens) (UniProt P08922); test: ROS ProQinase selectivity panel; conditions: Compound concentration 1.0 uM
# [30] = target: Calcium/calmodulin-dependent protein kinase type II subunit delta (Homo sapiens) (UniProt Q13557); test: CAMK2D ProQinase selectivity panel; conditions: Compound concentration 1.0 uM
# [31] = target: RAC-gamma serine/threonine-protein kinase (Homo sapiens) (UniProt Q9Y243); test: AKT3 ProQinase selectivity panel; conditions: Compound concentration 1.0 uM
# [32] = target: Casein kinase II subunit alpha' (Homo sapiens) (UniProt P19784); test: CK2-alpha2 ProQinase selectivity panel; conditions: Compound concentration 1.0 uM
# [33] = tested on: Platelet-derived growth factor receptor alpha (Homo sapiens), P16234 [D842V]; test: PDGFR-alpha D842V ProQinase selectivity panel; conditions: Compound concentration 1.0 uM
# [34] = target: Phosphorylase b kinase gamma catalytic chain, liver/testis isoform (Homo sapiens) (UniProt P15735); test: PHKG2 ProQinase selectivity panel; conditions: Compound concentration 1.0 uM
# [35] = target: High affinity nerve growth factor receptor (Homo sapiens) (UniProt P04629); test: TRK-A ProQinase selectivity panel; conditions: Compound concentration 1.0 uM
# [36] = target: TGF-beta receptor type-1 (Homo sapiens) (UniProt P36897); test: TGFB-R1 ProQinase selectivity panel; conditions: Compound concentration 1.0 uM
# [37] = target: MAP kinase-activated protein kinase 5 (Homo sapiens) (UniProt Q8IW41); test: MAPKAPK5 ProQinase selectivity panel; conditions: Compound concentration 1.0 uM
# [38] = target: Mitogen-activated protein kinase 13 (Homo sapiens) (UniProt O15264); test: p38-delta ProQinase selectivity panel; conditions: Compound concentration 1.0 uM
# [39] = target: Testis-specific serine/threonine-protein kinase 1 (Homo sapiens) (UniProt Q9BXA7); test: TSSK1 ProQinase selectivity panel; conditions: Compound concentration 1.0 uM
# [40] = target: G protein-coupled receptor kinase 5 (Homo sapiens) (UniProt P34947); test: GRK5 ProQinase selectivity panel; conditions: Compound concentration 1.0 uM
# [41] = target: Ephrin type-A receptor 7 (Homo sapiens) (UniProt Q15375); test: EPHA7 ProQinase selectivity panel; conditions: Compound concentration 1.0 uM
# [42] = target: Calcium/calmodulin-dependent protein kinase type II subunit beta (Homo sapiens) (UniProt Q13554); test: CAMK2B ProQinase selectivity panel; conditions: Compound concentration 1.0 uM
# [43] = target: Kappa-type opioid receptor (Homo sapiens) (UniProt P41145); conditions: Compound concentration 10.0 uM
# [44] = target: STE20-like serine/threonine-protein kinase (Homo sapiens) (UniProt Q9H2G2); test: SLK ProQinase selectivity panel; conditions: Compound concentration 1.0 uM
# [45] = target: Serine/threonine-protein kinase 4 (Homo sapiens) (UniProt Q13043); test: MST1 ProQinase selectivity panel; conditions: Compound concentration 1.0 uM
# [46] = target: Serine/threonine-protein kinase TAO3 (Homo sapiens) (UniProt Q9H2K8); test: TAOK3 ProQinase selectivity panel; conditions: Compound concentration 1.0 uM
# [47] = target: Glycogen synthase kinase-3 alpha (Homo sapiens) (UniProt P49840); test: GSK3-alpha ProQinase selectivity panel; conditions: Compound concentration 1.0 uM
# [48] = target: Rhodopsin kinase GRK7 (Homo sapiens) (UniProt Q8WTQ7); test: GRK7 ProQinase selectivity panel; conditions: Compound concentration 1.0 uM
# [49] = target: Protein kinase C eta type (Homo sapiens) (UniProt P24723); test: PKC-eta ProQinase selectivity panel; conditions: Compound concentration 1.0 uM
# [50] = target: Fibroblast growth factor receptor 1 (Homo sapiens) (UniProt P11362); test: FGF-R1 wt ProQinase selectivity panel; conditions: Compound concentration 1.0 uM
# NT-3 growth factor receptor (Homo sapiens), sequence (Q16288 32-839 limits assumed): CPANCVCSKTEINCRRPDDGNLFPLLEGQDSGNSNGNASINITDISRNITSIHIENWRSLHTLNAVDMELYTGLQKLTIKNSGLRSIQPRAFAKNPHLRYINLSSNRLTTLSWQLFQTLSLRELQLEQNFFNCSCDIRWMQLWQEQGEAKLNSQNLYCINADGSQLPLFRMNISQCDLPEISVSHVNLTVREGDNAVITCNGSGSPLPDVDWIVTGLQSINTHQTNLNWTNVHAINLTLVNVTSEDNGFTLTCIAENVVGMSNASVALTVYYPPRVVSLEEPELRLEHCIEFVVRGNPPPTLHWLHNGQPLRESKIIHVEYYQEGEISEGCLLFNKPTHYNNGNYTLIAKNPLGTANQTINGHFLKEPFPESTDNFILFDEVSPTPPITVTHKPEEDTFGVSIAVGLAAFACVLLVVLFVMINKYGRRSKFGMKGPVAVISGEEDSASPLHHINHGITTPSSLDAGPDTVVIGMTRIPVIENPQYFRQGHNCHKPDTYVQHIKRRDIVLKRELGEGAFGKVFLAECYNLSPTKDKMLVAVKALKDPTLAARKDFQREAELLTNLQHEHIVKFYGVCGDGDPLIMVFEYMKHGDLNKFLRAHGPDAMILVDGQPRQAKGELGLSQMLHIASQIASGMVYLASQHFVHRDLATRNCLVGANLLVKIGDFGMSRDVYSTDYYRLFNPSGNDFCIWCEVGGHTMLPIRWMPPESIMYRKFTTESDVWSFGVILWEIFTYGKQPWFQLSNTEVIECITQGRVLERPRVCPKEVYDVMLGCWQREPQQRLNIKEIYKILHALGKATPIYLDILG
# Protein-tyrosine kinase 6 (Homo sapiens), sequence (Q13882 whole entry, looked up): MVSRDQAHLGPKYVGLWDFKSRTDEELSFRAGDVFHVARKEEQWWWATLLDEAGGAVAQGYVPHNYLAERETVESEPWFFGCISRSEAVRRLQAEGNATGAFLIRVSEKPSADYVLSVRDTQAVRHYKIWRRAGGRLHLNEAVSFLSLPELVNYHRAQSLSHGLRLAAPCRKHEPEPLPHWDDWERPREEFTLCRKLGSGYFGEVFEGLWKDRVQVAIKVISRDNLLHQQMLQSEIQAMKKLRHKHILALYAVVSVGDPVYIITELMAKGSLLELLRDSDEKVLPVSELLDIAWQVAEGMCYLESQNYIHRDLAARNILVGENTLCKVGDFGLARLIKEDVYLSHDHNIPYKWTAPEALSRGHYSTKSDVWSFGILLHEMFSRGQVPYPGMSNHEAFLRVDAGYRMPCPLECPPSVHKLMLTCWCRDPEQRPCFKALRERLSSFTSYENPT
# Kappa-type opioid receptor (Homo sapiens), sequence (P41145 whole entry): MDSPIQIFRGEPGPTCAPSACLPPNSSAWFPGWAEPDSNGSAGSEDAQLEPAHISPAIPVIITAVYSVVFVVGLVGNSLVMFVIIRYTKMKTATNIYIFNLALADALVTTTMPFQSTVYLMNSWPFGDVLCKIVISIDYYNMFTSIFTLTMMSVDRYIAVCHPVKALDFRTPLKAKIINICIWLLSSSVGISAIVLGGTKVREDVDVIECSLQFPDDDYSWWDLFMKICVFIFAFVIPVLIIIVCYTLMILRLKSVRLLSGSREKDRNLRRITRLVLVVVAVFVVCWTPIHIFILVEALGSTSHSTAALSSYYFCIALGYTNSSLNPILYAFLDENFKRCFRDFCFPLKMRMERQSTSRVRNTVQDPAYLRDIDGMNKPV
# 5-hydroxytryptamine receptor 2B, sequence (P41595 whole entry): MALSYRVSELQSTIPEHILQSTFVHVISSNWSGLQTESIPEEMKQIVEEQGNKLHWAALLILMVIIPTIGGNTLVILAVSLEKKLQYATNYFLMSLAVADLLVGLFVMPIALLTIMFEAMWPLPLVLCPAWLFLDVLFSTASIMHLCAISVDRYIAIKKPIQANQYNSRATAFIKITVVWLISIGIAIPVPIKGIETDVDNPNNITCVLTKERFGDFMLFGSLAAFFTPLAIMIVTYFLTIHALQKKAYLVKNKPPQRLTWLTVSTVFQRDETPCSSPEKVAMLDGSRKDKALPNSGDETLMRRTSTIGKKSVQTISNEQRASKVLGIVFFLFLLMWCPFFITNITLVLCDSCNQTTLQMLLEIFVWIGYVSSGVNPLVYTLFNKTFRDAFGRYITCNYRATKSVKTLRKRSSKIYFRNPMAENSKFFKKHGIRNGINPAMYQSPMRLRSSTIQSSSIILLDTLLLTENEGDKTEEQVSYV
# Proto-oncogene tyrosine-protein kinase ROS (Homo sapiens), sequence (P08922 whole entry): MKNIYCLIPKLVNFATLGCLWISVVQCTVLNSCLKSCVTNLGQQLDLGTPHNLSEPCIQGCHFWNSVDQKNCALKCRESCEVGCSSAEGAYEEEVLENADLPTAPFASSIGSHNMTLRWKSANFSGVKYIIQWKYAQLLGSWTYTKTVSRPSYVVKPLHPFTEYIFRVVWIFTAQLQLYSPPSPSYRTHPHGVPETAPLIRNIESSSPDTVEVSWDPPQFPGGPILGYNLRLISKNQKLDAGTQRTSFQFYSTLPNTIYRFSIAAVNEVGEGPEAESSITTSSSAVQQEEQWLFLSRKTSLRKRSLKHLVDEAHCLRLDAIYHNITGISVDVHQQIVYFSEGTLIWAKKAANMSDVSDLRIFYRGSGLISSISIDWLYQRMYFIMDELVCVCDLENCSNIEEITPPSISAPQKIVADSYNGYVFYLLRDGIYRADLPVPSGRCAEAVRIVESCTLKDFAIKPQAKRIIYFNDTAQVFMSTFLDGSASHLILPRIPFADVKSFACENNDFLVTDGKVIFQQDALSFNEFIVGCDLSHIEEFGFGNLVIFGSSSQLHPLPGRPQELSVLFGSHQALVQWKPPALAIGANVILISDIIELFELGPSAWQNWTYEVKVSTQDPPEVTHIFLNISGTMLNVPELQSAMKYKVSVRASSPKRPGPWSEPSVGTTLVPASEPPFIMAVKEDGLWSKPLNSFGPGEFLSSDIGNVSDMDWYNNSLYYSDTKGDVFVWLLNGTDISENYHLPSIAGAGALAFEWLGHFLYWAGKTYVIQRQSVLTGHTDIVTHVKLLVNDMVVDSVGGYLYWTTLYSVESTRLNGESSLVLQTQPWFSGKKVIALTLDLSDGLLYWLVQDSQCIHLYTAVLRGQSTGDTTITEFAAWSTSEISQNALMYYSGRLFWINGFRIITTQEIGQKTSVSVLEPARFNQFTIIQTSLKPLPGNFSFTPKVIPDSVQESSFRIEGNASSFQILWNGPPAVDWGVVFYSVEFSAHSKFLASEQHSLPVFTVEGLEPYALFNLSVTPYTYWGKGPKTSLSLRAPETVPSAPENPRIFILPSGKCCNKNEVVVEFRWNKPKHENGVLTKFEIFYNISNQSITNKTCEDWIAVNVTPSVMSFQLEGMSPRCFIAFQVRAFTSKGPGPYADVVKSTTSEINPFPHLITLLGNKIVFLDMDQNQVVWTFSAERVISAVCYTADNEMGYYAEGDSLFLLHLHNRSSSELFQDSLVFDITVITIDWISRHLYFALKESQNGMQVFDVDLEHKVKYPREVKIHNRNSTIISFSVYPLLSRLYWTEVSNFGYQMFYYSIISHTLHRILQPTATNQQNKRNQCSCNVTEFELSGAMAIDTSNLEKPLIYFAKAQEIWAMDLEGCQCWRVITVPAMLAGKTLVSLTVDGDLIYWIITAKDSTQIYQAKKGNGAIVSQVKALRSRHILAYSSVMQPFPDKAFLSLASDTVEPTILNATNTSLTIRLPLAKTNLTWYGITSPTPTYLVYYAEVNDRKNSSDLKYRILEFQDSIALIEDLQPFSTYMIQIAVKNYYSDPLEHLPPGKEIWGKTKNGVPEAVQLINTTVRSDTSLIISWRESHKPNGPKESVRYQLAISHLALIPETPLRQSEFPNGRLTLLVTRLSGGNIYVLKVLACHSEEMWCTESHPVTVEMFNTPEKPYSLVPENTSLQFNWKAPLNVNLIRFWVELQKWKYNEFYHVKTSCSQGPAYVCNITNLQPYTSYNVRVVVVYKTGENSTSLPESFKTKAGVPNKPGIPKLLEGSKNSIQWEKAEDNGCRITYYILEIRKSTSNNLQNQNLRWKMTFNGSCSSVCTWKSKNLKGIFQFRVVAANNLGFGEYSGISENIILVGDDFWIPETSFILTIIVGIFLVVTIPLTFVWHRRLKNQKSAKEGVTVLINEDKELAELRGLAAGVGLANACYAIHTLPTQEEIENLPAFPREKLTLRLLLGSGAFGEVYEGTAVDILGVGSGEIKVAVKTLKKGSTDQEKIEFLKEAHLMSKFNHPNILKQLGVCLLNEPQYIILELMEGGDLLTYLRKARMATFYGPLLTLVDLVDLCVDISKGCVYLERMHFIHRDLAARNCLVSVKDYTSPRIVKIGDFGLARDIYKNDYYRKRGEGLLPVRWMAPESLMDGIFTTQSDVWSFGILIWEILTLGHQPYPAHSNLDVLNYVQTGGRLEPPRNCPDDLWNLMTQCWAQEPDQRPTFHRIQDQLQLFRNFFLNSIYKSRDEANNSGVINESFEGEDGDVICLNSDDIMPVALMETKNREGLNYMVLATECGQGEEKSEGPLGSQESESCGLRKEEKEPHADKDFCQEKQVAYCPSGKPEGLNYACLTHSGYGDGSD
# Death-associated protein kinase 3 (Homo sapiens), sequence (O43293 whole entry, looked up): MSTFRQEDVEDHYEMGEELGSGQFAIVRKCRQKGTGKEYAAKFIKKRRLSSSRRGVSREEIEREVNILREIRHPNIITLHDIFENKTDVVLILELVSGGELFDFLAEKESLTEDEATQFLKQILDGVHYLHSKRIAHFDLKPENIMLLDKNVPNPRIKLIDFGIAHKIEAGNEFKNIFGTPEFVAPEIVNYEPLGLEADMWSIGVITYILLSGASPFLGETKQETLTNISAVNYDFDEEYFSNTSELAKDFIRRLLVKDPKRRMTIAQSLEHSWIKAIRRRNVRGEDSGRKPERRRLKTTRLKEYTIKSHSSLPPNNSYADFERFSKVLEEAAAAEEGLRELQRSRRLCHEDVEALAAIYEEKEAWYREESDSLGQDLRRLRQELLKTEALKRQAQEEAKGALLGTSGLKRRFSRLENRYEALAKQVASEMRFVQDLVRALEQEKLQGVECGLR
compound,measurement,setting,value
O=C1c2ccc(Nc3ccc(F)cc3F)cc2CCc2ccc(OC[C@H](O)CO)cc21 [Skepinone-L],inhibition,[1],5.83%
same,% Residual activity with Skepinone-L,[2],87%
same,% Residual activity with Skepinone-L,[3],96%
same,% Residual activity with Skepinone-L,[4],128%
same,% Residual activity with Skepinone-L,[5],89%
same,% Residual activity with Skepinone-L,[6],104%
same,% Residual activity with Skepinone-L,[7],116%
same,% Residual activity with Skepinone-L,[8],79%
same,% Residual activity with Skepinone-L,[9],87%
same,% Residual activity with Skepinone-L,[10],120%
same,% Residual activity with Skepinone-L,[11],96%
same,% Residual activity with Skepinone-L,[12],113%
same,% Residual activity with Skepinone-L,[13],100%
same,% Residual activity with Skepinone-L,[14],107%
same,% Residual activity with Skepinone-L,[15],105%
same,% Residual activity with Skepinone-L,[16],94%
same,% Residual activity with Skepinone-L,[17],84%
same,% Residual activity with Skepinone-L,[18],97%
same,% Residual activity with Skepinone-L,[19],89%
same,% Residual activity with Skepinone-L,[20],99%
same,% Residual activity with Skepinone-L,[21],56%
same,% Residual activity with Skepinone-L,[22],96%
same,% Residual activity with Skepinone-L,[23],89%
same,inhibition,[24],83.1%
same,% Residual activity with Skepinone-L,[25],95%
same,% Residual activity with Skepinone-L,[26],106%
same,% Residual activity with Skepinone-L,[27],113%
same,% Residual activity with Skepinone-L,[28],97%
same,% Residual activity with Skepinone-L,[29],102%
same,% Residual activity with Skepinone-L,[30],43%
same,% Residual activity with Skepinone-L,[31],94%
same,% Residual activity with Skepinone-L,[32],87%
same,% Residual activity with Skepinone-L,[33],97%
same,% Residual activity with Skepinone-L,[34],73%
same,% Residual activity with Skepinone-L,[35],111%
same,% Residual activity with Skepinone-L,[36],93%
same,% Residual activity with Skepinone-L,[37],97%
same,% Residual activity with Skepinone-L,[38],80%
same,% Residual activity with Skepinone-L,[39],90%
same,% Residual activity with Skepinone-L,[40],121%
same,% Residual activity with Skepinone-L,[41],109%
same,% Residual activity with Skepinone-L,[42],86%
same,inhibition,[43],-4%
same,% Residual activity with Skepinone-L,[44],39%
same,% Residual activity with Skepinone-L,[45],71%
same,% Residual activity with Skepinone-L,[46],102%
same,% Residual activity with Skepinone-L,[47],93%
same,% Residual activity with Skepinone-L,[48],107%
same,% Residual activity with Skepinone-L,[49],97%
same,% Residual activity with Skepinone-L,[50],117%
